{"source": "patent US11873267B2", "about": "“Functionalized N,N-dialkylamino phenyl ethers and their method of use” (Temple University-Of The Commonwealth System of Higher …, priority 2016, dated 2024)", "key": {"[1]": {"tested_on": "Gaucher patient fibroblasts (Coreill Institute, GM08760)", "assay": "GPN induced calcium release phenotypic assay on Gaucher patient fibroblasts", "type": "cell-based, human", "conditions": "for Maximal % Change in GPN Response: ratio of GPN response with drug / without drug x 100; for EC50: Homo sapiens, Fibroblast, 12-point dilution curve in triplicate"}, "[2]": {"tested_on": "β-Glucocerebrosidase (GCase)", "assay": "β-Glucocerebrosidase (GCase) activity in lysates of compound-treated Gaucher patient fibroblasts (4-MUG substrate)", "type": "cell-based, human", "conditions": "10 μM, 3 days, Gaucher patient fibroblast lysates, no change = 1", "experimental": "Cellular lysates were prepared from compound treated cells and non-treated cells were included as a control. β-Glucocerebrosidase (GCase) activity was directly measured from lysates prepared from treated cells using a fluorescent substrate 4-methylumbelliferyl-β-D-glucopyranoside (MUG). Cells were washed 3× with phosphate-buffered saline (PBS) and detached by scraping. After centrifugation, The pellets were frozen on dry ice, thawed and lysed in McIlvaine (MI) buffer (100 mM sodium citrate, 200 mM sodium phosphate dibasic, 0.25% sodium taurocholate, and 0.1% Triton X-100, pH 5.2 containing protease inhibitors). Lysates are incubated with 3.0 mM 4-methylumbeliferryl-β-glucoside (4-MUG) substrate in MI buffer (50 μL) at 37° C. for 60 minutes. Reactions were stopped by addition of 0.4 M glycine, pH 10.6 (70 μL). Fluorescence was measured on a Clariostar plate reader (BMG Labtech) for one second per well using 355 nm excitation and 460 nm emission. Total protein was determined with the Bradford protein assay kit (BioRad) according to the manufacturer's instructions. The GCase activity measured after compound treatment is normalized to non-treated cells and expressed as relative activity where no change in GCAse activity is equal 1 (FIG. 3)."}, "[3]": {"tested_on": "Wild-type patient fibroblasts (Coriell Institute, GM 005659)", "conditions": "wild type patient cells", "experimental": "Gaucher patient fibroblasts (Coreill Institute, GM08760) were cultured in EMEM with 15% FBS, 1% Pen/Strep at 37° C./5% CO2. Wild-type patient fibroblasts (Coriell Institute, GM 005659) were used as a control cell line. Cells are plated with a MultiFlo dispenser (800 cells/well in 30 μL of complete growth media) in black/clear bottom 384-well plates and cultured for 24 hours at 37° C., 5% CO2. Compounds of the disclosure are then added to the cells (12 point dose response curve, 150 nM to 30 uM final compound concentration using a 5.0 μL of a 7× stock solution (1.05 μM to 210 μM)) under sterile conditions and continued in culture for 72 hours at 37° C., 5% CO2. […] The data from each well were normalized with basal fluorescence by dividing the maximum fluorescence over the entire real time reading by the initial basal fluorescence.\nCells (800 cells/well) were plated with a MultiFlo dispenser (BioTek) and cultured for 24 h at 37° C., 5% CO2. […] Cells were loaded with Screen Quest™ Fluo-8 No Wash Calcium mix (ATT Bio) and analyzed for changes in response to GPN. The data from each well were normalized with basal fluorescence by dividing the maximum fluorescence over the entire real time reading by the initial basal fluorescence. […] EC50 and Hill slope values are determined using a four-parameter dose-response (variable slope) equation in GraphPad Prism."}, "[4]": {"conditions": "Gaucher patient cells, 72 hours compound treatment"}}, "note": "Where a name gives a salt, the structure may show the parent alone."}
{"smiles": "CCCCC(=Cc1ccc(OCCN(C)C)cc1)c1ccccc1", "note": "(stereo in doubt) [Example 4, (Z)—N,N-dimethyl-2-(4-(2-phenylhex-1-en-1-yl)phenoxy)ethan-1-amine trifluoroacetate]", "values": [{"measurement": "Maximal % Change in GPN Response", "setting": "[1]; [4]", "value": 56, "unit": "%"}, {"measurement": "EC50", "setting": "[1]; [4]", "value": 7.2, "unit": "µM"}]}
{"smiles": "CC/C(=C\\c1ccc(OCCN(C)C)cc1)c1ccccc1", "note": "[Example 1, (E)-N,N-Dimethyl-2-(4-(2-(phenyl)but-1-en-1-yl)phenoxy)ethan-1-amine]", "values": [{"measurement": "Maximal % Change in GPN Response", "setting": "[1]; [4]", "value": 70, "unit": "%"}, {"measurement": "EC50", "setting": "[1]; [4]", "value": 6, "unit": "µM"}]}
{"smiles": "CC/C(=C/c1ccc(OCCN(C)C)cc1)c1ccccc1", "note": "[Example 2, (Z)—N,N-Dimethyl-2-(4-(2-(phenyl)but-1-en-1-yl)phenoxy)ethan-1-amine trifluoroacetate]", "values": [{"measurement": "Maximal % Change in GPN Response", "setting": "[1]; [4]", "value": 62, "unit": "%"}, {"measurement": "EC50", "setting": "[1]; [4]", "value": 14.1, "unit": "µM"}]}
{"smiles": "CC/C(=C\\c1ccc(OCCN2CCCC2)cc1)c1ccccc1", "note": "[Example 3, (E)-1-(2-(4-(2-phenylbut-1-en-1-yl)phenoxy)ethyl)pyrrolidine]", "values": [{"measurement": "Maximal % Change in GPN Response", "setting": "[1]; [4]", "value": 175, "unit": "%"}, {"measurement": "EC50", "setting": "[1]; [4]", "value": 5.3, "unit": "µM"}]}
{"smiles": "C/C(=C/c1ccc(OCCN2CCCC2)cc1)c1ccccc1", "note": "[Example 5, (Z)-1-(2-(4-(2-phenylprop-1-en-1-yl)phenoxy)ethyl)pyrrolidine]", "values": [{"measurement": "Maximal % Change in GPN Response", "setting": "[1]; [4]", "value": 72, "unit": "%"}, {"measurement": "EC50", "setting": "[1]; [4]", "value": 2.1, "unit": "µM"}]}
{"smiles": "CC/C(=C/c1ccc(OCCN(C)C)cc1)c1ccc([N+](=O)[O-])cc1", "note": "[Example 6, (Z)—N,N-Dimethyl-2-(4-(2-(4-nitrophenyl)but-1-en-1-yl)phenoxy) ethan-1-amine]", "values": [{"measurement": "Maximal % Change in GPN Response", "setting": "[1]; [4]", "value": 47, "unit": "%"}, {"measurement": "EC50", "setting": "[1]; [4]", "value": 4.3, "unit": "µM"}]}
{"smiles": "CC/C(=C\\c1ccccc1)c1ccc(OCCN(C)C)cc1", "note": "[Example 9, (E)-N,N-Dimethyl-2-(4-(1-phenylbut-1-en-2-yl)phenoxy)ethan-1-amine]", "values": [{"measurement": "Maximal % Change in GPN Response", "setting": "[1]; [4]", "value": 53, "unit": "%"}, {"measurement": "EC50", "setting": "[1]; [4]", "value": 3, "unit": "µM"}]}
{"smiles": "CC/C(=C\\c1ccccc1)c1ccc(OCCN2CCCC2)cc1", "note": "[Example 10, (E)-1-(2-(4-(1-Phenylbut-1-en-2-yl)phenoxy)ethyl)pyrrolidine]", "values": [{"measurement": "Maximal % Change in GPN Response", "setting": "[1]; [4]", "value": 48, "unit": "%"}, {"measurement": "EC50", "setting": "[1]; [4]", "value": 1.1, "unit": "µM"}]}
{"smiles": "CC(C)C(C(=O)c1ccc(OCCN(C)C)cc1)c1ccccc1", "note": "(stereo not drawn) [Example 11, 1-(4-(2-Dimethylaminoethoxy)-phenyl)-3-methyl-2-phenylbutan-1-one]", "values": [{"measurement": "Maximal % Change in GPN Response", "setting": "[1]; [4]", "value": 54, "unit": "%"}, {"measurement": "EC50", "setting": "[1]; [4]", "value": 3.3, "unit": "µM"}]}
{"smiles": "CC(C)CCC(C(=O)c1ccc(OCCN(C)C)cc1)c1ccccc1", "note": "(stereo not drawn) [Example 13]", "values": [{"measurement": "Maximal % Change in GPN Response", "setting": "[1]; [4]", "value": 191, "unit": "%"}, {"measurement": "EC50", "setting": "[1]; [4]", "value": 1.5, "unit": "µM"}]}
{"smiles": "CC(C)CC(C(=O)c1ccc(OCCN(C)C)cc1)c1ccccc1", "note": "(stereo not drawn) [Example 14, 1-(4-(2-(Dimethylamino)ethoxy)phenyl)-4-methyl-2-phenylpentan-1-one]", "values": [{"measurement": "Maximal % Change in GPN Response", "setting": "[1]; [4]", "value": 108, "unit": "%"}, {"measurement": "EC50", "setting": "[1]; [4]", "value": 0.7, "unit": "µM"}]}
{"smiles": "C=Cc1ccccc1C(CCCC)C(=O)c1ccc(OCCN(C)C)cc1", "note": "(stereo not drawn) [Example 15, 1-(4-(2-(dimethylamino)ethoxy)phenyl)-2-(2-vinylphenyl)hexan-1-one]", "values": [{"measurement": "Maximal % Change in GPN Response", "setting": "[1]; [4]", "value": 217, "unit": "%"}, {"measurement": "EC50", "setting": "[1]; [4]", "value": 2.7, "unit": "µM"}]}
{"smiles": "CCCCC(C(=O)c1ccc(OCCN(C)C)cc1)c1ccccc1CC", "note": "(stereo not drawn) [Example 16, 1-(4-(2-(dimethylamino)ethoxy)phenyl)-2-(2-ethylphenyl)hexan-1-one]", "values": [{"measurement": "Maximal % Change in GPN Response", "setting": "[1]; [4]", "value": 138, "unit": "%"}, {"measurement": "EC50", "setting": "[1]; [4]", "value": 0.65, "unit": "µM"}]}
{"smiles": "C=C(C)c1ccccc1C(CCCC)C(=O)c1ccc(OCCN(C)C)cc1", "note": "(stereo not drawn) [Example 17]", "values": [{"measurement": "Maximal % Change in GPN Response", "setting": "[1]; [4]", "value": 275, "unit": "%"}, {"measurement": "EC50", "setting": "[1]; [4]", "value": 2.2, "unit": "µM"}]}
{"smiles": "CCCCC(C(=O)c1ccc(OCCN(C)C)cc1)c1ccccc1C(C)C", "note": "(stereo not drawn) [Example 18, 1-(4-(2-(Dimethylamino)ethoxy)phenyl)-2-(2-isopropylphenyl)hexan-1-one]", "values": [{"measurement": "Maximal % Change in GPN Response", "setting": "[1]; [4]", "value": 233, "unit": "%"}, {"measurement": "EC50", "setting": "[1]; [4]", "value": 0.33, "unit": "µM"}]}
{"smiles": "CCCCC(C(=O)c1ccc(OCCN(C)C)cc1)c1ccccc1", "note": "(stereo not drawn) [MC150235, 1-(4-(2-(Dimethylamino)ethoxy)phenyl)-2-phenylhexan-1-one]", "values": [{"measurement": "GCase activity relative to non-treated cells", "setting": "[2]", "value": "increase in GCase activity"}, {"measurement": "Maximal % Change in GPN Response", "setting": "[1]; [4]", "value": 87, "unit": "%"}, {"measurement": "EC50", "setting": "[1]; [4]", "value": 2.4, "unit": "µM"}]}
{"smiles": "CCC(Cc1ccc(OCCN(C)C)cc1)c1ccccc1", "note": "(stereo not drawn) [MC210155, N,N-Dimethyl-2-(4-(2-phenylbutyl)phenoxy)ethan-1-amine trifluoroacetate]", "values": [{"measurement": "GCase activity relative to non-treated cells", "setting": "[2]", "value": "increase in GCase activity"}, {"measurement": "Maximal % Change in GPN Response", "setting": "[1]; [4]", "value": 154, "unit": "%"}, {"measurement": "EC50", "setting": "[1]; [4]", "value": 4.8, "unit": "µM"}]}
{"smiles": "CC/C(=C(\\c1ccccc1)c1ccc(OCCN(C)C)cc1)c1ccccc1", "note": "[Tamoxifen, reference compound]", "values": [{"measurement": "increase in GPN-induced calcium response", "setting": "[3]", "value": "40+/−20%"}, {"measurement": "increase in calcium response compared with 0.1% DMSO treated Gaucher patient cells", "setting": "[1]; 72 hours compound treatment, GPN response", "value": "200±50", "unit": "%"}, {"measurement": "activity to increase lysosomal calcium signaling (Prestwick Chemical Library screen)", "setting": "[1]; Gaucher patient cells, 72 hours, confirmed in triplicate", "value": "active compound"}]}
